From patent publication EP0450065A1, “ANTIVIRAL AGENT” (priority 1988, dated 1990)

How the values were obtained:
Assay type in all cases: cell-based
[1] = system: herpes simplex virus type 2 (169 strain); experiment: 50% Tissue culture infective dose (TCID50), Read-Munch method, negative logarithm of virus dilution; set-up: key to Cytopathic effect [CPE] (5days) △TCID50 / Cytopathic effect [CPE] (6days) △TCID50 / Cytopathic effect [CPE] (3days) △TCID50: difference in -log TCID50 from untreated control; key to Cytopathic effect [CPE] (5days) TCID50 / Cytopathic effect [CPE] (3days) TCID50 / Cytopathic effect [CPE] (6days) TCID50: negative log of maximum virus dilution infecting 50% of tissues; settings: HSV-2 (169); for Cytopathic effect [CPE] (3days) △TCID50 / Cytopathic effect [CPE] (5days) △TCID50 / Cytopathic effect [CPE] (6days) △TCID50: difference from control
Protocol: The amount of virus infecting 50% of tissues (TCID₅₀) was determined by the Read-Munch method and expressed in negative logarithm of the maximum radio of dilution of virus. The difference of the amount thus determined from the amount found in the control (omitting the treatment with a chemical) was reported as ΔTCID₅₀. A sample whose ΔCPE's found on the last day of observation and on each of the days spent for the observation exceeded 1.0 was evaluated as effective.
In vitro antiviral activity of Compound A against herpes simplex virus type 2 (169 strain) The test was carried out by following the procedure of Example 3.

[2] = system: herpes simplex virus type 1 (HF strain); experiment: Control of CPE (cytopathic effect) manifestation in vero cells; set-up: key to Cytopathic effect [CPE] (3days) Average / Cytopathic effect [CPE] (5days) Average / Cytopathic effect [CPE] (6days) Average: CPE score: 0 none, 0.5 minute spots, 1 = 25%, 2 = 50%, 3 = ≥75% cells; key to Cytopathic effect [CPE] (3days) △CPE / Cytopathic effect [CPE] (5days) △CPE / Cytopathic effect [CPE] (3days) ΔCPE / Cytopathic effect [CPE] (6days) ΔCPE: ΔCPE = difference of average CPE score (0–3 scale) from control; settings: for Cytopathic effect [CPE] (3days) △CPE / Cytopathic effect [CPE] (5days) △CPE / Cytopathic effect [CPE] (3days) ΔCPE / Cytopathic effect [CPE] (6days) ΔCPE: difference from control
Protocol: In vitro antiviral activity of Compound A against herpes simplex virus type 1 (HF strain) Compound A was tested for antiviral effect by the following two methods.
Vero cells cultured and grown in a monolayer on microplates to test for cytopathic effect due to viral infection, with solutions of Compound A diluted to varying ratios and solutions of virus diluted to varying ratios added severally thereto in a volume of 0.1 ml, were cultured under the conditions of 5% CO₂ and 37°C and were examined for CPE manifestation under a microscope. The observation was continued for five to six days.
The degree of CPE brought about by viral infection was rated on the five-point scale, wherein 3 stands for CPE observed on not less than 75% of cultured cells, 2 for CPE observed on 50% of cultured cells, 1 for CPE observed on 25% of cultured cells, 0.5 for occurrence of one to two extremely minute DPE spots, and 0 for perfect absence of recognizable CPE. The CPE scores obtained at the four holes in each microplate were averaged and the difference of the average from the average obtained in the control (omitting the treatment with a chemical) was reported as ΔCPE.
In vitro antiviral effect of Compound A against herpes simplex virus type 1 (HF strain) The test was carried out by following the procedure of Example 3.

[3] = system: herpes simplex virus type 1 (KOS strain); experiment: 50% Tissue culture infective dose (TCID50), Read-Munch method, negative logarithm of virus dilution; set-up: key to Cytopathic effect [CPE] (5days) TCID50 / Cytopathic effect [CPE] (3days) TCID50: TCID50 as negative log of maximum virus dilution ratio; key to Cytopathic effect [CPE] (5days) △TCID50 / Cytopathic effect [CPE] (3days) △TCID50: difference from control TCID50, in negative log of virus dilution; settings: HSV-1 (KOS), Example 7; for Cytopathic effect [CPE] (3days) △TCID50 / Cytopathic effect [CPE] (5days) △TCID50: difference from control
[4] = system: herpes simplex virus type 1 (KOS strain); experiment: One-step growth of virus, plaque assay with vero cells; settings: for Intracellular virus Average / Intracellular virus Control ratio % / Intracellular virus Control ratio -logT/C: 24 hours
[5] = 10 μg/ml, HSV-1 (HF), Example 3
[6] = 20 μg/ml, HSV-1 (HF), Example 3
[7] = 50 μg/ml, HSV-1 (HF), Example 3
[8] = 100 μg/ml, HSV-1 (HF strain), Example 5
[9] = 100 μg/ml, HSV-1 (HF), Example 3
[10] = 200 μg/ml, HSV-1 (HF strain), Example 5

K₅BW₁₂O₄₀.15H₂O [Compound A]
Cytopathic effect [CPE] (3days) TCID50 ([1]; 5 μg/ml, Example 4): 6.5
Cytopathic effect [CPE] (5days) TCID50 ([1]; 5 μg/ml, Example 4): 6.7
Cytopathic effect [CPE] (3days) △TCID50 ([1]; 5 μg/ml, Example 4): 0
Cytopathic effect [CPE] (5days) △TCID50 ([1]; 5 μg/ml, Example 4): 0.2
Cytopathic effect [CPE] (3days) TCID50 ([1]; 10 μg/ml, Example 4): 6.3
Cytopathic effect [CPE] (5days) TCID50 ([1]; 10 μg/ml, Example 4): 6.3
Cytopathic effect [CPE] (3days) △TCID50 ([1]; 10 μg/ml, Example 4): 0.2
Cytopathic effect [CPE] (5days) △TCID50 ([1]; 10 μg/ml, Example 4): 0.2
Cytopathic effect [CPE] (3days) TCID50 ([1]; 20 μg/ml, Example 4): 6.5
Cytopathic effect [CPE] (5days) TCID50 ([1]; 20 μg/ml, Example 4): 6.2
Cytopathic effect [CPE] (3days) △TCID50 ([1]; 20 μg/ml, Example 4): 0
Cytopathic effect [CPE] (5days) △TCID50 ([1]; 20 μg/ml, Example 4): 0.3
Cytopathic effect [CPE] (3days) TCID50 ([1]; 50 μg/ml, Example 4): 5.5
Cytopathic effect [CPE] (5days) TCID50 ([1]; 50 μg/ml, Example 4): 5.5
Cytopathic effect [CPE] (3days) △TCID50 ([1]; 50 μg/ml, Example 4): 1.0
Cytopathic effect [CPE] (5days) △TCID50 ([1]; 50 μg/ml, Example 4): 1.0
Cytopathic effect [CPE] (3days) TCID50 ([1]; 100 μg/ml, Example 4): 3.5
Cytopathic effect [CPE] (5days) TCID50 ([1]; 100 μg/ml, Example 4): 3.5
Cytopathic effect [CPE] (3days) △TCID50 ([1]; 100 μg/ml, Example 4): 3.0
Cytopathic effect [CPE] (5days) △TCID50 ([1]; 100 μg/ml, Example 4): 3.0
Cytopathic effect [CPE] (3days) TCID50 ([1]; 100 μg/ml, Example 6): < 3.5
Cytopathic effect [CPE] (6days) TCID50 ([1]; 100 μg/ml, Example 6): < 3.5
Cytopathic effect [CPE] (3days) △TCID50 ([1]; 100 μg/ml, Example 6): > 3.2
Cytopathic effect [CPE] (6days) △TCID50 ([1]; 100 μg/ml, Example 6): > 3.2
Cytopathic effect [CPE] (3days) TCID50 ([1]; 200 μg/ml, Example 6): < 3.5
Cytopathic effect [CPE] (6days) TCID50 ([1]; 200 μg/ml, Example 6): < 3.5
Cytopathic effect [CPE] (3days) △TCID50 ([1]; 200 μg/ml, Example 6): > 3.2
Cytopathic effect [CPE] (6days) △TCID50 ([1]; 200 μg/ml, Example 6): > 3.2
Cytopathic effect [CPE] (3days) Average ([2]; 5 μg/ml, HSV-1 (HF), Example 3): 1.25
Cytopathic effect [CPE] (5days) Average ([2]; 5 μg/ml, HSV-1 (HF), Example 3): 1.75
Cytopathic effect [CPE] (3days) △CPE ([2]; 5 μg/ml, HSV-1 (HF), Example 3): 0.25
Cytopathic effect [CPE] (5days) △CPE ([2]; 5 μg/ml, HSV-1 (HF), Example 3): 0
Cytopathic effect [CPE] (3days) Average [2, 5]: 1.25
Cytopathic effect [CPE] (5days) Average [2, 5]: 1.25
Cytopathic effect [CPE] (3days) △CPE [2, 5]: 0.25
Cytopathic effect [CPE] (5days) △CPE [2, 5]: 0.5
Cytopathic effect [CPE] (3days) Average [2, 6]: 1.25
Cytopathic effect [CPE] (5days) Average [2, 6]: 1.5
Cytopathic effect [CPE] (3days) △CPE [2, 6]: 0.25
Cytopathic effect [CPE] (5days) △CPE [2, 6]: 0.25
Cytopathic effect [CPE] (3days) Average [2, 7]: 1.5
Cytopathic effect [CPE] (5days) Average [2, 7]: 2.0
Cytopathic effect [CPE] (3days) △CPE [2, 7]: 0
Cytopathic effect [CPE] (5days) △CPE [2, 7]: 0.25
Cytopathic effect [CPE] (3days) Average [2, 8]: 0.125
Cytopathic effect [CPE] (6days) Average [2, 8]: 0.5
Cytopathic effect [CPE] (3days) ΔCPE [2, 8]: 2.625
Cytopathic effect [CPE] (6days) ΔCPE [2, 8]: 2.5
Cytopathic effect [CPE] (3days) Average [2, 9]: 0.75
Cytopathic effect [CPE] (5days) Average [2, 9]: 1.0
Cytopathic effect [CPE] (3days) △CPE [2, 9]: 0.375
Cytopathic effect [CPE] (5days) △CPE [2, 9]: 0.75
Cytopathic effect [CPE] (3days) Average [2, 10]: 0
Cytopathic effect [CPE] (6days) Average [2, 10]: 0
Cytopathic effect [CPE] (3days) ΔCPE [2, 10]: 2.75
Cytopathic effect [CPE] (6days) ΔCPE [2, 10]: 3.0
Cytopathic effect [CPE] (3days) TCID50 ([3]; 100 μg/ml): 3.5
Cytopathic effect [CPE] (5days) TCID50 ([3]; 100 μg/ml): 3.5
Cytopathic effect [CPE] (3days) △TCID50 ([3]; 100 μg/ml): 2.0
Cytopathic effect [CPE] (5days) △TCID50 ([3]; 100 μg/ml): 2.5
Cytopathic effect [CPE] (3days) TCID50 ([3]; 200 μg/ml): 3.5
Cytopathic effect [CPE] (5days) TCID50 ([3]; 200 μg/ml): 3.5
Cytopathic effect [CPE] (3days) △TCID50 ([3]; 200 μg/ml): 2.0
Cytopathic effect [CPE] (5days) △TCID50 ([3]; 200 μg/ml): 2.5
Intracellular virus Average ([4]; 50 μg/ml, extracellular virus): 7.13×10^5 /dish
Intracellular virus Control ratio % ([4]; 50 μg/ml, extracellular virus): 97.6%
Intracellular virus Control ratio -logT/C ([4]; 50 μg/ml, extracellular virus): 1.623
Intracellular virus Average ([4]; 50 μg/ml): 1.34×10^6 /dish
Intracellular virus Control ratio % ([4]; 50 μg/ml): 99.7%
Intracellular virus Control ratio -logT/C ([4]; 50 μg/ml): 2.482
Intracellular virus Average ([4]; 100 μg/ml, extracellular virus): 8.38×10^4 /dish
Intracellular virus Control ratio % ([4]; 100 μg/ml, extracellular virus): 99.7%
Intracellular virus Control ratio -logT/C ([4]; 100 μg/ml, extracellular virus): 2.554
Intracellular virus Average ([4]; 100 μg/ml): 1.99×10^6 /dish
Intracellular virus Control ratio -logT/C ([4]; 100 μg/ml): 7.211
Intracellular virus Control ratio % ([4]; 100 μg/ml, 1440 min): >99.9%
Intracellular virus Control ratio -logT/C ([4]; 200 μg/ml, extracellular virus): 5.778
Intracellular virus Control ratio % ([4]; 200 μg/ml, extracellular virus, 1440 min): >99.9%
Intracellular virus Control ratio -logT/C ([4]; 200 μg/ml): > 7.211
Intracellular virus Control ratio % ([4]; 200 μg/ml, 1440 min): >99.9%
control of the intracellular and extracellular viruses in the one-step growth ([4]; concentration not given, 1440 min): not less than 99.9%
